Measurements from patent US11673853B2, “Small molecule AMPK activators” (University of Pittsburgh—Of the Commonwealth System of …, priority 2016, dated 2023).

What was measured:
Type in all cases: in vivo
[1] = system: C57BL6 mice; assay: LPS-induced sepsis model; details: i.p., LPS (E. coli) 3 mg/kg i.p. after 10 min, blood at 2 h
Protocol: FIG. 5. C57BL6 mice were administered i.p. vehicle, 0.04, 0.2, 1 or 5 mg/kg of Compound 12. After 10 min, mice were given LPS (E. coli, 3 mg/kg) through an i.p. injection and, after 2 h, mice were euthanized and blood was collected for IL1-β, IL-6 and TNFα measurements. Shown in panels (D)-(F) is % inhibition of cytokine levels as a function of drug dose. The data represent n=3 mice/group at each dose. Protein (A), cell counts (B), bacterial count (C), and presence of AMPK and pAMPK (G) were also determined.
FIG. 11. (A-B.) C57BL6 mice were administered i.p. vehicle, 0.08, 0.4, 2 or 10 mg/kg of Compound 23. After 10 min, mice were given LPS (E. coli, 3 mg/kg) through an i.p. injection and, after 2 h, mice were euthanized and blood collected for IL-6 and TNFα measurements. Shown in panels (A-B.) are the cytokine levels as a function of drug dose. The data represent n=3 mice/group at each dose. (C-G) Compound 23 (2 or 10 mg/kg) was administered to mice though an i.p. injection, and mice were immediately challenged with LPS (E. coli, 3 mg/kg, i.t.) or without (control, CON) for an additional 18 h. Mice were then euthanized and lungs were lavaged with saline, harvested, and then homogenized. Lavage protein (C), cell counts (D) and cytokine secretions (E-G) were measured. The data are representative of data from n=5 mice/group, *P<0.05 versus vehicle.
In a sepsis model, Compound 12 was administered to mice at various doses through an i.p. injection, and, after 10 min, the mice were given LPS (E. coli; 3 mg/kg i.p.). Two hours later, the mice were euthanized, and blood was collected and assayed for IL-1β, IL-6 and TNFα cytokine levels.
Compound 23 was tested in a sepsis model. Compound 23 was administered to mice at various doses through an i.p. injection, and 10 min later, mice were given LPS (E. coli; 3 mg/kg i.p.). After 2 h, mice were euthanized and blood was collected and assayed for IL-6 and TNFα cytokine levels. […] Finally, Compound 23 was tested in a pneumonia model using LPS endotoxin. […] Thus Compound 23 protects the lung against LPS induced lung injury.

[2] = system: mice; assay: Cecal ligation and puncture (CLP)-induced sepsis model; details: 10 mg/kg i.p., 24 h
Protocol: FIG. 6. Mice were anesthetized prior to the cecal ligation and puncture (CLP) procedure. Compound 12 (10 mg/kg) was then administered immediately afterwards through an intraperitoneal (i.p.) injection. After 24 h, mice were euthanized and blood was collected for assays of IL-6, TNF, and IL1-β levels. Peritoneal fluid was obtained for determination of bacterial counts after CLP in mice. The lungs were also lavaged with saline, harvested, and then homogenized. Lavage cytokine secretion (C-E), protein (A), cell counts (B) were measured. The data represent n=4-5 mice/group, *P<0.05 Compound 12 versus vehicle. Presence of AMPK and pAMPK was also determined (F).
Compound 12 was examined in a model of cecal ligation and puncture (CLP)-induced sepsis.

[3] = system: mice; assay: Pseudomonas (PA103) pneumonia model; details: 2 or 10 mg/kg i.p., PA103 i.t., 18 h
Protocol: FIG. 7. Compound 12 (2 or 10 mg/kg) was administered to mice though an i.p. injection, and mice were immediately challenged with P. aeruginosa (strain PA103, 1.5*10^4 cfu/mouse, i.t.) or without (control, CON) for an additional 18 h. Mice were then euthanized and lungs were lavaged with saline, harvested, and then homogenized. Lavage protein, cell counts, bacterial count and cytokine secretions (A-C) were measured. Lungs were homogenized before being assayed by immunoblotting. The data are representative of data from n=5-6 mice/group, *P<0.05 versus vehicle.
Compound 12 was tested in two pneumonia model using Pseudomonas or LPS endotoxin.

[4] = system: Diet-induced obese mice; assay: Hyperinsulinemic euglycemic clamp study; details: BC1618 20 mg/kg twice
Protocol: FIG. 30. Diet-induced obese mice were dosed 1× with vehicle or BC1618 (20 mg/kg) prior to overnight fast, followed by a 1× (20 mg/kg) morning dose prior to hyperinsulinemic euglycemic clamp. Body weight measurements are shown.
FIG. 31. From the same study as in FIG. 30, fasting plasma glucose and glucose infusion rate values are shown.
FIG. 32. From the same study as in FIG. 30, glucose infusion rate values are shown.
Diet-induced obese mice were dosed 1× with vehicle or BC1618 (20 mg/kg) prior to overnight fast, followed by a 1× (20 mg/kg) morning dose prior to hyperinsulinemic euglycemic clamp. […] Plasma glucose levels were matched during the clamp (FIG. 31, upper portion). The glucose infusion rate (GIR) required to maintain euglycemia in the 1618 treated mice was approximately 2-fold greater than VEH treated mice (FIG. 31, lower portion and average over last 40 min in FIG. 32, P<0.001), indicating improved whole-body insulin sensitivity.

SMILES	ID50 IL-1β [1]	ID50 IL-6 [1]	ID50 TNF-α [1]	CLP-induced lung injury (BAL cytokines, protein and cell counts) [2]	CLP-induced secretion of circulating proinflammatory cytokines (IL-6, TNF, IL1-β) [2]	bacterial count ([2]; peritoneal fluid)	lavage bacterial counts [3]	lavage cell counts [3]	lavage protein concentration [3]	lavage proinflammatory cytokines ([3]; dose dependent)	pAMPK levels within the lung tissue ([3]; immunoblotting)	body weight prior to clamp [4]	glucose infusion rate (GIR) required to maintain euglycemia, relative to VEH treated mice ([4]; P<0.001)	fasting plasma glucose ([4]; before clamp, vehicle 111±3, P=0.12)
OC(COc1ccc(F)cc1)CN(Cc1ccccc1)Cc1ccccc1 (stereo not shown) [Compound 12]	0.1 mg/kg	0.4 mg/kg	0.4 mg/kg	effectively reduce severities	significantly attenuated	without affecting bacterial count	without affecting lavage bacterial counts	substantially decreased	substantially decreased	effectively reduces	drastically increasing			
OC(COc1ccc(C(F)(F)F)cc1)CN(Cc1ccccc1)Cc1ccccc1 (stereo not shown) [Compound 23]		0.4 mg/kg	0.4 mg/kg									no difference in body weight	approximately 2 fold	100 ± 6 mg/dL
